In paper PMC12881674, “Activation of TRPV3 channels in bladder cancer cells stimulates ATP release” (Molecular Pharmacology, 2025):

Target: T1, rat TRPV1 (Rattus norvegicus, UniProt O35433)
T1 construct: expressed in transfected cells; host or cells: HEK293
Test: fluo-4 Ca2+ assay selectivity, HEK cells expressing rat TRPV1
Assay type: cell-based
Conditions: concentrations up to 50 μM
Source text: KU-19-19 (DSMZ no. ACC 395), CAL-29 (DSMZ no. ACC 515), 647-V (DSMZ no. ACC 414), RT-4 (DSMZ no. ACC 412), and RT-112 (DSMZ no. ACC 418) bladder cancer cell lines were obtained from the Leibniz Institute DSMZ (German Collection of Microorganisms and Cell Cultures). Human TRPV3 (NM_145068, purchased from OriGene) and mouse TRPV3 (NM_001371006), rat TRPV1, mouse TRPV2, mouse TRPV4, human TRPM2, human TRPM8, and human TRPA1 were stably transfected in HEK293 cells as described before.[27] […]
All fluorometric Ca^2+ assays were performed in HBS buffer at room temperature. […] For the primary compound screening and the generation of concentration-response analyses, a robotic liquid handling station (Freedom Evo 150; Tecan) with a built-in custom-made fluorescence plate imager was used. […] Fluorescence was excited using a 470-nm light-emitting diode, and emitted light was imaged through a 515-nm–long pass filter with a cooled Zyla 5.5 camera (Andor). Fluorescence was recorded and processed under the control of the μ-Manager 2.0 gamma software (https://micro-manager.org.[28]). After recording baseline fluorescence, compounds were dispensed into the wells via the liquid handling device. […] For further analysis, fluorescence signals were calculated for each well, corrected for background intensities and normalized to the initial signals. […]

T1 sequence (O35433 whole entry): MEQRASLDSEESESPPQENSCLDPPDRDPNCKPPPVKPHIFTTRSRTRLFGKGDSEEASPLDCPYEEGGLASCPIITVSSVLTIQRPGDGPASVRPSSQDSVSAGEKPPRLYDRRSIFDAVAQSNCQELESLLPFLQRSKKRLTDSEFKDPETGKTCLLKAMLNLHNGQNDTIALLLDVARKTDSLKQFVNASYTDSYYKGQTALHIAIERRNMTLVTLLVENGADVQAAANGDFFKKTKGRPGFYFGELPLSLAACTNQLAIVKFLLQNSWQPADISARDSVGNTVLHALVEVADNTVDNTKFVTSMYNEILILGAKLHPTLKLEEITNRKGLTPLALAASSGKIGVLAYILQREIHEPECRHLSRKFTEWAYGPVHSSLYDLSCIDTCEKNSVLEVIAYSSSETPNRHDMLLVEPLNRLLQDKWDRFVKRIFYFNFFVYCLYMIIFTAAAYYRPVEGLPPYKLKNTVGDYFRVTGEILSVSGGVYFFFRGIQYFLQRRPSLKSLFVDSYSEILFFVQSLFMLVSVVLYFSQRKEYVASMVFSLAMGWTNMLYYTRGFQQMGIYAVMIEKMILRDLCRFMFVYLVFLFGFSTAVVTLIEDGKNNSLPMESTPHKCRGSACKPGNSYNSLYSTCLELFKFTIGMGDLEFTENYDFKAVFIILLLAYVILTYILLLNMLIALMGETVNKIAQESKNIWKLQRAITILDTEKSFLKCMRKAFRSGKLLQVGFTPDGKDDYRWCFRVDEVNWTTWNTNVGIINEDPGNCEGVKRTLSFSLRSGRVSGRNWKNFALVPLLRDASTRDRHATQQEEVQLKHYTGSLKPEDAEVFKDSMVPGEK

SMILES: COC(=O)C12CN(Cc3ccccc3)CC1(C(=O)OC)CN(Cc1ccccc1)C2 (stereo not shown) [AV3-1]
- effect on TRPV1: only a minor activation
